Assay results from patent publication US20250011344A1 (priority 2021, published 2025).
“And” between values parts separate entries of the source, which are not always exact repeats. Equal values may be shown once. Where a name gives a salt, the structure may show the parent alone.

Experiments:
[1] = PO 2 mg/Kg, FIG. 15, time points other than the one quantified
[2] = PK of psilocin after a single intravenous administration in rats; details: IV 1 mg/kg nominal dose; for half-life: T½
[3] = psilocin in plasma, individual animal
[4] = psilocin in plasma, individual animal, 1 mg/kg

SMILES | Plasma concentrations of metabolite psilocin at other time points [1] | AUC(0-inf) ([2]; male, Sprague-Dawley, rat, plasma, iv, 1 mg/kg, AUCINF_obs, Mean of animals) [ng·h/mL] | AUC(0-t) ([2]; male, Sprague-Dawley, rat, plasma, iv, 1 mg/kg, AUClast, Mean of animals) [ng·h/mL] | Cmax ([2]; male, Sprague-Dawley, rat, plasma, iv, 1 mg/kg, Cmax, Mean of animals) [ng/mL] | half-life ([2]; male, Sprague-Dawley, rat, plasma, iv, 1 mg/kg, Mean of animals) [min] | half-life ([2]; male, Sprague-Dawley, rat, plasma, iv, 1 mg/kg, individual animal) [min] | Tlast ([2]; psilocin in plasma, Mean of animals) [h] | Tlast [2, 3] [h] | Tmax [2, 3] [min] | AUCINF_obs [2, 4] | AUClast [2, 4] | Cmax [2, 4] | T½ [2, 4]
CN(C)CCc1c[nH]c2cccc(OP(=O)(OC(C)(C)C)OC(C)(C)C)c12 [Di-tert-butyl [3-[2-(dimethylamino)ethyl]-1H-indol-4-yl] phosphate HCl salt] | below limit of quantification (BLQ) |  |  |  |  |  |  |  |  |  |  |  | 
CN(C)CCc1c[nH]c2cccc(O)c12 [Psilocin, psilocin] |  | 1580 | 1920 | 1300 | 28.7 | 24.8 | 24.00 | 24.00 | 15 | 982 ng·h/mL and 3390 ng·h/mL and 368 ng·h/mL | 1340 ng·h/mL and 3780 ng·h/mL and 646 ng·h/mL | 1110 ng/mL and 2450 ng/mL and 340 ng/mL | 21.2 min and 40.1 min
